# Data: PubChem BioAssay AID248 (DTP/NCI, 2004)
# Where “and” joins values, the source holds several entries; their conditions need not be identical. Equal values may be shown once. Inconclusive results and toxic doses are left out.
# Test system: L1210 leukemia ip in BDF1 mice, survival T/C
# Test: NCI In Vivo Anticancer Drug Screen. Data for tumor model L1210 Leukemia (intraperitoneal) in B6D2F1 (BDF1) mice
# Settings: endpoint: mean survival time, higher = longer survival
# Summary of the method: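 Each compound was tested against a transplantable tumor grown in mice. The endpoint was survival, with treated animals benchmarked against vehicle controls as a simple ratio.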
compound,measurement,setting,value
CSc1ncnc2c1ncn2N1CCCC1COS(=O)(=O)c1ccc(C)cc1 (configuration not stated),T/C,"dose: 100.0 mg/kg/injection, schedule: Q01DX001 (ip), vehicle: DMSO",96 % of control
same,T/C,"dose: 200.0 mg/kg/injection, schedule: Q01DX001 (ip), vehicle: DMSO",90 % of control
same,T/C,"dose: 400.0 mg/kg/injection, schedule: Q01DX001 (ip), vehicle: DMSO",95 % of control
O=C1C(=O)c2c(nc3ccccn23)-c2ccccc21,T/C,"dose: 100.0 mg/kg/injection, schedule: Q01DX001 (ip), vehicle: Klucel (hydroxypropylcellulose) (HPC)",103 % of control
same,T/C,"dose: 200.0 mg/kg/injection, schedule: Q01DX001 (ip), vehicle: Klucel (hydroxypropylcellulose) (HPC)",94 % of control
same,T/C,"dose: 400.0 mg/kg/injection, schedule: Q01DX001 (ip), vehicle: Klucel (hydroxypropylcellulose) (HPC)",105 % of control
CCCOC(=O)C(CC(C)(C)C)CC(C)(C)C,T/C,"dose: 100.0 mg/kg/injection, schedule: Q01DX001 (ip), vehicle: saline",104 % of control
same,T/C,"dose: 200.0 mg/kg/injection, schedule: Q01DX001 (ip), vehicle: saline",104 % of control
same,T/C,"dose: 400.0 mg/kg/injection, schedule: Q01DX001 (ip), vehicle: saline",101 % of control
O=C(Nc1ccc(C2=NCCCN2)cc1)c1ccc(NC(=O)c2ccc(C3=NCCCN3)cc2)cc1,T/C,"dose: 0.03 mg/kg/injection, schedule: Q01DX Z (iv), vehicle: water",107 % of control
same,T/C,"dose: 0.06 mg/kg/injection, schedule: Q01DX Z (iv), vehicle: water",102 % of control
same,T/C,"dose: 0.12 mg/kg/injection, schedule: Q01DX Z (ip), vehicle: carboxymethylcellulose (CMC)",102 % of control
same,T/C,"dose: 0.12 mg/kg/injection, schedule: Q01DX Z (iv), vehicle: water",113 % of control
same,T/C,"dose: 0.2 mg/kg/injection, schedule: Q01DX006 (iv), vehicle: carboxymethylcellulose (CMC)",119 % of control
same,T/C,"dose: 0.25 mg/kg/injection, schedule: Q01DX Z (ip), vehicle: carboxymethylcellulose (CMC)",103 % of control
same,T/C,"dose: 0.25 mg/kg/injection, schedule: Q01DX Z (iv), vehicle: water",94 % of control
same,T/C,"dose: 0.4 mg/kg/injection, schedule: Q01DX006 (iv), vehicle: carboxymethylcellulose (CMC)",113 % of control
same,T/C,"dose: 0.5 mg/kg/injection, schedule: Q01DX Z (ip), vehicle: carboxymethylcellulose (CMC)",107 % of control
same,T/C,"dose: 0.5 mg/kg/injection, schedule: Q01DX Z (sc), vehicle: saline",108 % of control
same,T/C,"dose: 0.6 mg/kg/injection, schedule: Q01DX006 (iv), vehicle: carboxymethylcellulose (CMC)",120 % of control
same,T/C,"dose: 0.8 mg/kg/injection, schedule: Q01DX006 (iv), vehicle: carboxymethylcellulose (CMC)",111 % of control
same,T/C,"dose: 0.94 mg/kg/injection, schedule: Q01DX Z (ip), vehicle: saline",120 % of control
same,T/C,"dose: 1.0 mg/kg/injection, schedule: Q01DX Z (sc), vehicle: saline",110 % of control
same,T/C,"dose: 1.76 mg/kg/injection, schedule: Q01DX015 (ip), vehicle: carboxymethylcellulose (CMC)",154 % of control
same,T/C,"dose: 2.0 mg/kg/injection, schedule: Q01DX010 (ip), vehicle: other",160 % of control and 162 % of control
same,T/C,"dose: 2.0 mg/kg/injection, schedule: Q01DX Z (sc), vehicle: saline",110 % of control
same,T/C,"dose: 2.6 mg/kg/injection, schedule: Q01DX015 (ip), vehicle: carboxymethylcellulose (CMC)",230 % of control
same,T/C,"dose: 3.75 mg/kg/injection, schedule: Q01DX Z (ip), vehicle: saline",245 % of control
same,T/C,"dose: 4.0 mg/kg/injection, schedule: Q01DX010 (ip), vehicle: other",215 % of control and 217 % of control and 251 % of control
same,T/C,"dose: 4.0 mg/kg/injection, schedule: Q01DX015 (ip), vehicle: carboxymethylcellulose (CMC)",305 % of control
same,T/C,"dose: 4.0 mg/kg/injection, schedule: Q01DX Z (sc), vehicle: saline",156 % of control and 195 % of control
same,T/C,"dose: 6.0 mg/kg/injection, schedule: Q01DX015 (ip), vehicle: carboxymethylcellulose (CMC)",319 % of control
same,T/C,"dose: 8.0 mg/kg/injection, schedule: Q01DX010 (ip), vehicle: other",245 % of control and 258 % of control and 345 % of control
same,T/C,"dose: 8.0 mg/kg/injection, schedule: Q01DX Z (sc), vehicle: saline",259 % of control
same,T/C,"dose: 9.0 mg/kg/injection, schedule: Q01DX015 (ip), vehicle: carboxymethylcellulose (CMC)",180 % of control
same,T/C,"dose: 10.0 mg/kg/injection, schedule: Q01DX010 (sc), vehicle: saline",106 % of control
same,T/C,"dose: 10.0 mg/kg/injection, schedule: Q02DX004 (im), vehicle: olive oil, sesame oil, peanut oil",154 % of control and 178 % of control
same,T/C,"dose: 14.0 mg/kg/injection, schedule: Q01DX001 (ip), vehicle: other",156 % of control
same,T/C,"dose: 16.0 mg/kg/injection, schedule: Q01DX010 (ip), vehicle: other",97 % of control and 98 % of control and 100 % of control
same,T/C,"dose: 16.0 mg/kg/injection, schedule: Q01DX Z (sc), vehicle: carboxymethylcellulose (CMC)",102 % of control
same,T/C,"dose: 16.0 mg/kg/injection, schedule: Q01DX Z (sc), vehicle: saline",124 % of control
same,T/C,"dose: 20.0 mg/kg/injection, schedule: Q01DX001 (im), vehicle: steriod suspending solution",110 % of control
same,T/C,"dose: 20.0 mg/kg/injection, schedule: Q01DX010 (sc), vehicle: olive oil, sesame oil, peanut oil",87 % of control
same,T/C,"dose: 20.0 mg/kg/injection, schedule: Q01DX010 (sc), vehicle: saline",87 % of control
same,T/C,"dose: 20.0 mg/kg/injection, schedule: Q02DX004 (im), vehicle: olive oil, sesame oil, peanut oil",250 % of control and 285 % of control
same,T/C,"dose: 21.0 mg/kg/injection, schedule: Q01DX001 (ip), vehicle: carboxymethylcellulose (CMC)",156 % of control
same,T/C,"dose: 21.0 mg/kg/injection, schedule: Q01DX001 (ip), vehicle: saline",159 % of control and 172 % of control
same,T/C,"dose: 32.0 mg/kg/injection, schedule: Q01DX001 (ip), vehicle: carboxymethylcellulose (CMC)",172 % of control
same,T/C,"dose: 32.0 mg/kg/injection, schedule: Q01DX001 (ip), vehicle: other",202 % of control
same,T/C,"dose: 32.0 mg/kg/injection, schedule: Q01DX001 (ip), vehicle: saline",196 % of control
same,T/C,"dose: 40.0 mg/kg/injection, schedule: Q01DX001 (im), vehicle: steriod suspending solution",173 % of control
same,T/C,"dose: 40.0 mg/kg/injection, schedule: Q02DX004 (im), vehicle: olive oil, sesame oil, peanut oil",100 % of control and 86 % of control
same,T/C,"dose: 48.0 mg/kg/injection, schedule: Q01DX001 (ip), vehicle: carboxymethylcellulose (CMC)",219 % of control
same,T/C,"dose: 48.0 mg/kg/injection, schedule: Q01DX001 (ip), vehicle: saline",243 % of control and 247 % of control
same,T/C,"dose: 62.0 mg/kg/injection, schedule: Q01DX Z (oral), vehicle: carboxymethylcellulose (CMC)",102 % of control
same,T/C,"dose: 62.5 mg/kg/injection, schedule: Q01DX010 (oral), vehicle: other",105 % of control
same,T/C,"dose: 72.0 mg/kg/injection, schedule: Q01DX001 (ip), vehicle: saline",103 % of control and 229 % of control
same,T/C,"dose: 90.0 mg/kg/injection, schedule: Q#A X Z (oral), vehicle: carboxymethylcellulose (CMC)",100 % of control
same,T/C,"dose: 125.0 mg/kg/injection, schedule: Q01DX010 (oral), vehicle: other",177 % of control
same,T/C,"dose: 125.0 mg/kg/injection, schedule: Q01DX Z (oral), vehicle: carboxymethylcellulose (CMC)",105 % of control
same,T/C,"dose: 125.0 mg/kg/injection, schedule: Q01DX Z (oral), vehicle: saline",92 % of control
same,T/C,"dose: 135.0 mg/kg/injection, schedule: Q#A X Z (oral), vehicle: carboxymethylcellulose (CMC)",91 % of control
same,T/C,"dose: 180.0 mg/kg/injection, schedule: Q01DX Z (oral), vehicle: carboxymethylcellulose (CMC)",108 % of control
same,T/C,"dose: 202.5 mg/kg/injection, schedule: Q#A X Z (oral), vehicle: carboxymethylcellulose (CMC)",115 % of control
same,T/C,"dose: 250.0 mg/kg/injection, schedule: Q01DX010 (oral), vehicle: other",194 % of control
same,T/C,"dose: 250.0 mg/kg/injection, schedule: Q01DX Z (oral), vehicle: carboxymethylcellulose (CMC)",120 % of control
same,T/C,"dose: 250.0 mg/kg/injection, schedule: Q01DX Z (oral), vehicle: saline",89 % of control
same,T/C,"dose: 270.0 mg/kg/injection, schedule: Q01DX Z (oral), vehicle: carboxymethylcellulose (CMC)",102 % of control
same,T/C,"dose: 405.0 mg/kg/injection, schedule: Q01DX Z (oral), vehicle: carboxymethylcellulose (CMC)",120 % of control
same,T/C,"dose: 500.0 mg/kg/injection, schedule: Q01DX010 (oral), vehicle: other",122 % of control
same,T/C,"dose: 500.0 mg/kg/injection, schedule: Q01DX Z (oral), vehicle: saline",113 % of control
same,T/C,"dose: 540.0 mg/kg/injection, schedule: Q03DX Z (oral), vehicle: carboxymethylcellulose (CMC)",98 % of control
same,T/C,"dose: 800.0 mg/kg/injection, schedule: Q03DX Z (oral), vehicle: carboxymethylcellulose (CMC)",112 % of control
same,T/C,"dose: 1200.0 mg/kg/injection, schedule: Q03DX Z (oral), vehicle: carboxymethylcellulose (CMC)",120 % of control
same,T/C,"dose: 1200.0 mg/kg/injection, schedule: Q07DX Z (oral), vehicle: carboxymethylcellulose (CMC)",95 % of control
same,T/C,"dose: 1800.0 mg/kg/injection, schedule: Q07DX Z (oral), vehicle: carboxymethylcellulose (CMC)",106 % of control
same,T/C,"dose: 2700.0 mg/kg/injection, schedule: Q07DX Z (oral), vehicle: carboxymethylcellulose (CMC)",124 % of control
